This note sets out measurements from PubChem BioAssay AID248 (DTP/NCI, 2004).

Inconclusive results and toxic doses are left out.

The subject of the assay is L1210 leukemia ip in BDF1 mice, survival T/C. In words: NCI In Vivo Anticancer Drug Screen. Data for tumor model L1210 Leukemia (intraperitoneal) in B6D2F1 (BDF1) mice. The note with it: higher = longer survival. The method, boiled down:
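Each compound was tested against a transplantable tumor grown in mice. The endpoint was survival, with treated animals benchmarked against vehicle controls as a simple ratio.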

[1] abbreviates: endpoint: mean survival time, dose: 100.0 mg/kg/injection, schedule: Q01DX001 (ip), vehicle: saline.
Setting [2] is: endpoint: mean survival time, dose: 100.0 mg/kg/injection, schedule: Q04DX003 (ip), vehicle: saline with Tween-80.
[3] abbreviates: endpoint: mean survival time, dose: 200.0 mg/kg/injection, schedule: Q04DX003 (ip), vehicle: saline with Tween-80.
Where [4] appears, read: endpoint: mean survival time, dose: 100.0 mg/kg/injection, schedule: Q04DX003 (ip), vehicle: saline.
Where [5] appears, read: endpoint: mean survival time, dose: 200.0 mg/kg/injection, schedule: Q04DX003 (ip), vehicle: saline.
Setting [6] is: endpoint: mean survival time, dose: 400.0 mg/kg/injection, schedule: Q04DX003 (ip), vehicle: saline.
Setting [7] is: endpoint: mean survival time, dose: 100.0 mg/kg/injection, schedule: Q01DX001 (ip), vehicle: saline with Tween-80.
Where [8] appears, read: endpoint: mean survival time, dose: 200.0 mg/kg/injection, schedule: Q01DX001 (ip), vehicle: saline with Tween-80.

`Cc1cc(C)c(NS(=O)(=O)c2ccccc2)c(C)c1Br`: the T/C (endpoint: mean survival time, dose: 75.0 mg/kg/injection, schedule: Q04DX003 (ip), vehicle: Klucel (hydroxypropylcellulose) (HPC)) was 95 % of control; the T/C (endpoint: mean survival time, dose: 150.0 mg/kg/injection, schedule: Q04DX003 (ip), vehicle: Klucel (hydroxypropylcellulose) (HPC)) was 94 % of control; the T/C (endpoint: mean survival time, dose: 300.0 mg/kg/injection, schedule: Q04DX003 (ip), vehicle: Klucel (hydroxypropylcellulose) (HPC)) is 94 % of control.
As for `CC[C@H](/C=C/[C@@H](C)[C@H]1CC[C@H]2[C@@H]3CC=C4C[C@@H](OC(=O)/C=C\C(=O)O)CC[C@]4(C)[C@H]3CC[C@]12C)C(C)C`, the T/C was 96 % of control (endpoint: mean survival time, dose: 12.5 mg/kg/injection, schedule: Q01DX009 (ip), vehicle: water); 86 % of control (endpoint: mean survival time, dose: 25.0 mg/kg/injection, schedule: Q01DX009 (ip), vehicle: water); 105 % of control (endpoint: mean survival time, dose: 25.0 mg/kg/injection, schedule: Q04DX003 (ip), vehicle: other); 92 % of control (endpoint: mean survival time, dose: 50.0 mg/kg/injection, schedule: Q04DX003 (ip), vehicle: other).
Take `CCCCNC(=O)n1ncc2ccc([N+](=O)[O-])cc21`: the T/C is 105 % of control under setting [1]; 105 % of control (endpoint: mean survival time, dose: 200.0 mg/kg/injection, schedule: Q01DX001 (ip), vehicle: saline); 102 % of control (endpoint: mean survival time, dose: 400.0 mg/kg/injection, schedule: Q01DX001 (ip), vehicle: saline).
For the molecule `CC[C@H]1CN2CCc3cc(OC)c(OC)cc3[C@@H]2C[C@@H]1C[C@H]1NCCc2c1[nH]c1ccc(OC)cc21`, the T/C (endpoint: mean survival time, dose: 0.5 mg/kg/injection, schedule: Q01DX009 (ip), vehicle: saline) is 103 % of control; the T/C (endpoint: mean survival time, dose: 1.0 mg/kg/injection, schedule: Q01DX009 (ip), vehicle: saline) was 105 % of control; the T/C (endpoint: mean survival time, dose: 2.0 mg/kg/injection, schedule: Q01DX005 (ip), vehicle: saline) is 113 % of control; the T/C (endpoint: mean survival time, dose: 2.0 mg/kg/injection, schedule: Q01DX009 (ip), vehicle: saline) was 107 % of control; the T/C (endpoint: mean survival time, dose: 2.0 mg/kg/injection, schedule: Q04DX003 (ip), vehicle: saline) is 115 % of control; the T/C (endpoint: mean survival time, dose: 4.0 mg/kg/injection, schedule: Q01DX005 (ip), vehicle: saline) is 117 % of control. Also, the T/C (endpoint: mean survival time, dose: 4.0 mg/kg/injection, schedule: Q01DX009 (ip), vehicle: saline) was 114 % of control; the T/C (endpoint: mean survival time, dose: 4.0 mg/kg/injection, schedule: Q04DX003 (ip), vehicle: saline) is 123 % of control; the T/C (endpoint: mean survival time, dose: 8.0 mg/kg/injection, schedule: Q04DX003 (ip), vehicle: saline) was 109 % of control; the T/C (endpoint: mean survival time, dose: 16.0 mg/kg/injection, schedule: Q01DX009 (ip), vehicle: saline) was 117 % of control; the T/C (endpoint: mean survival time, dose: 16.0 mg/kg/injection, schedule: Q04DX003 (ip), vehicle: saline) is 124 % of control; the T/C (endpoint: mean survival time, dose: 32.0 mg/kg/injection, schedule: Q04DX003 (ip), vehicle: saline) is 152 % of control. Also, the T/C (endpoint: median survival time, dose: 4.0 mg/kg/injection, schedule: Q04DX003 (ip), vehicle: saline + alcohol) is 101 % of control; the T/C (endpoint: median survival time, dose: 8.0 mg/kg/injection, schedule: Q04DX003 (ip), vehicle: saline + alcohol) was 104 % of control; the T/C (endpoint: median survival time, dose: 16.0 mg/kg/injection, schedule: Q04DX003 (ip), vehicle: saline + alcohol) is 117 % of control; the T/C (endpoint: median survival time, dose: 64.0 mg/kg/injection, schedule: Q04DX003 (ip), vehicle: saline + alcohol) is 86 % of control.
Take `Cc1ccc2c(c1)C=CC(C#N)N2C(=O)OCc1ccccc1` (configuration not stated): the T/C reads like this: under setting [2], 95 % of control; under setting [3], 97 % of control; (endpoint: mean survival time, dose: 400.0 mg/kg/injection, schedule: Q04DX003 (ip), vehicle: saline with Tween-80) 94 % of control.
`COc1c(C)ccc(/C=N/NC(=O)c2ccncc2)c1C`: the T/C is 95 % of control (endpoint: mean survival time, dose: 100.0 mg/kg/injection, schedule: Q04DX002 (ip), vehicle: carboxymethylcellulose (CMC)); 95 % of control (endpoint: mean survival time, dose: 200.0 mg/kg/injection, schedule: Q04DX002 (ip), vehicle: carboxymethylcellulose (CMC)); 92 % of control (endpoint: mean survival time, dose: 400.0 mg/kg/injection, schedule: Q04DX002 (ip), vehicle: carboxymethylcellulose (CMC)).
Consider `CC#CCOCC1CN(C)C(=O)O1` (configuration not stated), for which the T/C is 95 % of control (endpoint: mean survival time, dose: 25.0 mg/kg/injection, schedule: Q01DX009 (ip), vehicle: saline); 98 % of control (endpoint: mean survival time, dose: 50.0 mg/kg/injection, schedule: Q01DX009 (ip), vehicle: saline); 106 % of control (endpoint: mean survival time, dose: 50.0 mg/kg/injection, schedule: Q04DX003 (ip), vehicle: saline); 92 % of control (endpoint: mean survival time, dose: 100.0 mg/kg/injection, schedule: Q01DX009 (ip), vehicle: saline); 101 % of control under setting [4]; 90 % of control (endpoint: mean survival time, dose: 200.0 mg/kg/injection, schedule: Q01DX009 (ip), vehicle: saline). The T/C is 104 % of control under setting [5]; 95 % of control (endpoint: mean survival time, dose: 400.0 mg/kg/injection, schedule: Q01DX009 (ip), vehicle: saline); 101 % of control under setting [6].
Regarding `O=c1c2ccccc2oc2ccccc12`, the T/C under setting [7] was 102 % of control; the T/C under setting [2] was 96 % of control; the T/C under setting [8] was 102 % of control; the T/C under setting [3] is 97 % of control; the T/C (endpoint: mean survival time, dose: 400.0 mg/kg/injection, schedule: Q01DX001 (ip), vehicle: saline with Tween-80) is 102 % of control.
As for `Cc1cc(N=Nc2ccc([N+](=O)[O-])cc2)ccc1O`, the T/C is, setting by setting: (endpoint: mean survival time, dose: 100.0 mg/kg/injection, schedule: Q01DX001 (ip), vehicle: Klucel (hydroxypropylcellulose) (HPC)) 98 % of control; (endpoint: mean survival time, dose: 200.0 mg/kg/injection, schedule: Q01DX001 (ip), vehicle: Klucel (hydroxypropylcellulose) (HPC)) 95 % of control.
With `CCC(NC(C)=O)C(=O)O` (configuration not stated), the T/C runs as follows: (endpoint: mean survival time, dose: 100.0 mg/kg/injection, schedule: Q04DX002 (ip), vehicle: saline) 101 % of control; under setting [4], 104 % of control; (endpoint: mean survival time, dose: 200.0 mg/kg/injection, schedule: Q04DX002 (ip), vehicle: saline) 90 % of control; under setting [5], 96 % of control; (endpoint: mean survival time, dose: 400.0 mg/kg/injection, schedule: Q04DX002 (ip), vehicle: saline) 116 % of control; under setting [6], 95 % of control.
For the molecule `CCCCCCOCC(O)CNCCN` (configuration not stated), the T/C (endpoint: mean survival time, dose: 6.25 mg/kg/injection, schedule: Q04DX003 (ip), vehicle: saline with Tween-80) is 95 % of control; the T/C (endpoint: mean survival time, dose: 12.5 mg/kg/injection, schedule: Q04DX003 (ip), vehicle: saline with Tween-80) was 90 % of control; the T/C (endpoint: mean survival time, dose: 25.0 mg/kg/injection, schedule: Q04DX003 (ip), vehicle: saline with Tween-80) was 96 % of control.
With `O=Cc1cc(O)c(O)c(Br)c1`, the T/C (endpoint: mean survival time, dose: 75.0 mg/kg/injection, schedule: Q04DX003 (ip), vehicle: saline) was 100 % of control; the T/C (endpoint: mean survival time, dose: 150.0 mg/kg/injection, schedule: Q04DX003 (ip), vehicle: saline) is 87 % of control; the T/C (endpoint: mean survival time, dose: 300.0 mg/kg/injection, schedule: Q04DX003 (ip), vehicle: saline) was 98 % of control.
On to `C=CCC(CC)C(=O)NC(=O)N1CCCc2ccccc21` (configuration not stated), for which the T/C under setting [7] was 91 % of control and the T/C under setting [8] was 86 % of control.
`O=Nc1c(-c2c[nH]c3ccccc23)[nH]c2ccccc12`: the T/C was 106 % of control (endpoint: mean survival time, dose: 50.0 mg/kg/injection, schedule: Q01DX001 (ip), vehicle: saline) and 102 % of control under setting [1].
For `Cc1cc[c]([Hg][I])cc1`, the T/C (endpoint: mean survival time, dose: 6.25 mg/kg/injection, schedule: Q01DX009 (ip), vehicle: Klucel (hydroxypropylcellulose) (HPC)) is 93 % of control; the T/C (endpoint: mean survival time, dose: 12.5 mg/kg/injection, schedule: Q01DX009 (ip), vehicle: Klucel (hydroxypropylcellulose) (HPC)) was 94 % of control; the T/C (endpoint: mean survival time, dose: 25.0 mg/kg/injection, schedule: Q04DX002 (ip), vehicle: Klucel (hydroxypropylcellulose) (HPC)) is 87 % of control.
`O=C(Nc1cccc(C2=NCCN2)c1)c1ccc(OCCCOc2ccc(C(=O)Nc3cccc(C4=NCCN4)c3)cc2)cc1`: the T/C is 113 % of control (endpoint: mean survival time, dose: 9.0 mg/kg/injection, schedule: Q01DX Z (ip), vehicle: saline); 107 % of control (endpoint: mean survival time, dose: 12.0 mg/kg/injection, schedule: Q01DX Z (ip), vehicle: water); 107 % of control (endpoint: mean survival time, dose: 13.0 mg/kg/injection, schedule: Q01DX Z (ip), vehicle: saline); 112 % of control (endpoint: mean survival time, dose: 20.0 mg/kg/injection, schedule: Q01DX Z (ip), vehicle: saline); 111 % of control (endpoint: mean survival time, dose: 25.0 mg/kg/injection, schedule: Q01DX Z (ip), vehicle: water).
